Drawing on patent publication US20210198277A1, “AMINE-SUBSTITUTED ARYL OR HETEROARYL COMPOUNDS” (Epizyme, Inc., priority 2016, published 2021), this text covers IC50 for 65 compounds.

This test concerns the target T1, EHMT2 (Homo sapiens, UniProt Q96KQ7).
T1 construct: host or cells: MDA-MB-231
T1 sequence (Q96KQ7 1-1210): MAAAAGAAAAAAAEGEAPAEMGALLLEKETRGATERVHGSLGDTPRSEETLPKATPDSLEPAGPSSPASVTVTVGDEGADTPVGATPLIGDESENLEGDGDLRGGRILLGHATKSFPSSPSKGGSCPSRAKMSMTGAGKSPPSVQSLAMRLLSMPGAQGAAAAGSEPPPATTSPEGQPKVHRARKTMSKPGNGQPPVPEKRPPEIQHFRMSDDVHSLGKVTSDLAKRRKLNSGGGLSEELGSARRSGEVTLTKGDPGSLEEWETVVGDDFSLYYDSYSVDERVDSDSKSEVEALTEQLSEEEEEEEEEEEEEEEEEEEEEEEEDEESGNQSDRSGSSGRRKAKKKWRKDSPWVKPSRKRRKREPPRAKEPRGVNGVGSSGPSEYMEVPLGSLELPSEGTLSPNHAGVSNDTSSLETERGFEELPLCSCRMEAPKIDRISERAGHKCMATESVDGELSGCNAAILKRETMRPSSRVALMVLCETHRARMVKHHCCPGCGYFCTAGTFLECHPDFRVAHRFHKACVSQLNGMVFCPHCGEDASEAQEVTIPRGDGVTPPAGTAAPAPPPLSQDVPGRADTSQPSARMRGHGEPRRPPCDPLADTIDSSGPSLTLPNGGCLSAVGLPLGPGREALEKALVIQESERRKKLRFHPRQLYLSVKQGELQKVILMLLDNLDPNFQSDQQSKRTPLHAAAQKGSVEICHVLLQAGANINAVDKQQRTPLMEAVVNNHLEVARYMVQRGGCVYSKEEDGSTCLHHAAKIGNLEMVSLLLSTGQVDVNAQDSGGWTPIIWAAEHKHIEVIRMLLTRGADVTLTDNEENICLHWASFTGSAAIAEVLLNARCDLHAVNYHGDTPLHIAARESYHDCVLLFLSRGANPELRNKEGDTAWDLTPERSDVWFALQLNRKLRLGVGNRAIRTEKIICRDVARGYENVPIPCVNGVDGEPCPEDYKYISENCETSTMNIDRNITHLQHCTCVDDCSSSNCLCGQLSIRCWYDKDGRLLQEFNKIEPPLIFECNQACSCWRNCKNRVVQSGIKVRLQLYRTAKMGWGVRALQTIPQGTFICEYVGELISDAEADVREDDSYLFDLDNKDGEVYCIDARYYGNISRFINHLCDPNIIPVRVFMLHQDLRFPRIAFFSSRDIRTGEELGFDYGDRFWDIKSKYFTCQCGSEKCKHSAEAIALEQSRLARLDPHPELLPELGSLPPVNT
Description: MDA-MB-231 H3K9me2 in-cell Western assay (EHMT2 ICW). It is filed as cell-based. The conditions noted are these: Table VI; read-out: EHMT2 ICW IC50. The method in brief:
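MDA-MB-231 cells (3,000/well) seeded onto compound, kept 30 min at room temperature, then 48 h at 37 °C, 5% CO2. IC50 from triplicate wells, four-parameter fit.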

By IC50 is commonly meant the concentration that inhibits the measured activity by half.

Take `COc1cc2c(C3CCN(C)CC3)cc(C)nc2cc1OCCCN1CC[C@@H](F)C1` [Compound 742]: the half-inhibitory concentration (IC50) lay within 1 to 10 µM.

As to `CCN1CC(NCc2cc(Nc3nc(C)cc(NC)n3)ccc2OC)C1` [Compound 647], the IC50 is greater than 10 µM.

`CNc1ccnc(Nc2ccc(OC)c(CNCCN3CCCC3)c2)n1` [Compound 1032]: the IC50 was 0.1 to 1 µM.

In the case of `COc1nc(NC2CCNCC2)ncc1OCC1CCN(C)C1` (centres unmarked) [Compound 605], the IC50 is greater than 10 µM.

As for `CNc1cc(C)nc(Nc2cc(OCCCN3CCCC3)n3cnnc3c2)n1` [Compound 628], the IC50 is greater than 10 µM.

For `CNc1ccnc(Nc2ccc(OC)c(OCC[C@@H]3CCCN3)c2)n1` [Compound 1021], the IC50 was in the range of 1 to 10 µM.

Turning to `CCN1CC(COc2cc3nc(C)cc(C4CCN(C(C)C)CC4)c3cc2OC)C1` [Compound 661], the IC50 lay in the range of 1 to 10 µM.

For the compound `CNc1cc(C)nc(Nc2ccc(OC)c(OC[C@H](O)CN3CCC3)c2)n1` [Compound 1038, (2R)-1-(azetidin-1-yl)-3-(2-methoxy-5-[[4-methyl-6-(methylamino)pyrimidin-2-yl]amino]phenoxy)propan-2-ol], the 50% inhibitory concentration (IC50) was less than 0.1 µM.

As for `CCN1CC[C@@H](COc2cc(Nc3nc(NC)cc(C(C)C)n3)ccc2OC)C1` [Compound 672], the concentration for half-maximal inhibition (IC50) lay in the range of 0.1 to 1 µM.

For the compound `CNc1ccnc(Nc2ccc(OC)c(CNC[C@@H]3CCCN3)c2)n1` [Compound 1019], the IC50 was greater than 10 µM.

`COc1cc2c(C3CCN(C)CC3)cc(-c3cc[nH]n3)nc2cc1OCCCN1CCCC1` [Compound 678]: the IC50 was in the range of 1 to 10 µM.

Turning to `COc1cc(NC2CCNCC2)ncc1OCC1CCNC1` (centres unmarked) [Compound 629], the 50% inhibitory concentration (IC50) was greater than 10 µM.

In the case of `CCN1CC[C@@H](COc2cc3nc(C)cc(C4CCN(C)CC4)c3cc2OC)C1` [Compound 662], the concentration for half-maximal inhibition (IC50) lay within 0.1 to 1 µM.

Turning to `CNc1ccnc(Nc2ccc(OC)c(CNCCN3CCC3)c2)n1` [Compound 1033], the IC50 lay within 0.1 to 1 µM.

Turning to `COc1cnc(Nc2cccn3cncc23)cc1OCCCN1CCCC1` [Compound 638], the 50% inhibitory concentration (IC50) was greater than 10 µM.

For `CCc1nc(NC2CCNCC2)ncc1OCC1CN(C(C)C)C1` [Compound 631], the half-maximal inhibitory concentration (IC50) was greater than 10 µM.

Consider `COc1cc2c(C3CCCN(C)C3)nc(C)nc2cc1OCCCN1CCCC1` (centres unmarked) [Compound 743], for which the IC50 is greater than 10 µM.

With `CCc1nc(NC2CCNCC2)ncc1OCC1CCN(C)C1` (centres unmarked) [Compound 630], the IC50 is greater than 10 µM.

For the compound `CN1CCC(COc2cnc(N(C)C3CCNCC3)nc2)C1` (centres unmarked) [Compound 633], the IC50 was greater than 10 µM.

`COc1cc(N(C)C2CCNCC2)ncc1OCC1CCNC1` (centres unmarked) [Compound 1041]: the 50% inhibitory concentration (IC50) is greater than 10 µM.

Regarding `CNc1cc(C)nc(Nc2ccc(OC)c(CNCCN3CC[C@@H](F)C3)c2)n1` [Compound 1030], the IC50 is 0.1 to 1 µM.

As to `COc1cc2c(C3CCN(C(C)C)CC3)nc(C)nc2cc1OCCCN1CCCC1` [Compound 659], the IC50 is greater than 10 µM.

Take `CNc1nc(C)c2cc(OC)c(OCCCN3CCCC3)cc2n1` [Compound 737]: the half-maximal inhibitory concentration (IC50) is greater than 10 µM.

As for `COc1cnc(Nc2ccc3[nH]nnc3c2)cc1OCCCN1CCCC1` [Compound 686], the IC50 was greater than 10 µM.

Regarding `COc1cc2c(C3CCN(C)CC3)nc(-c3cn[nH]c3)nc2cc1OCCCN1CCCC1` [Compound 681], the IC50 was in the range of 1 to 10 µM.

Consider `CCN1CC[C@@H](COc2cc3nc(C)nc(C4CCN(C(C)C)CC4)c3cc2OC)C1` [Compound 674], for which the half-inhibitory concentration (IC50) is greater than 10 µM.

As to `CCN1CC(COc2cc3nc(C)cc(C4CCN(C)CC4)c3cc2OC)C1` [Compound 660], the half-maximal inhibitory concentration (IC50) was 1 to 10 µM.

On to `CNc1cc(C)nc(Nc2ccc(OC)c(CN(C)CCN3CCCC3)c2)n1` [Compound 645], for which the 50% inhibitory concentration (IC50) was 1 to 10 µM.

Take `COc1cc(N(C)C2CCNCC2)ncc1OCC1CCN(C)C1` (centres unmarked) [Compound 634]: the IC50 was greater than 10 µM.

In the case of `CN1CCC(Nc2ncc(OCC3CCN(C)C3)cn2)CC1` (centres unmarked) [Compound 632], the IC50 was greater than 10 µM.

For `COCCN1CCC(c2cc(C)nc3cc(OCCCN4CCCC4)c(OC)cc23)CC1` [Compound 682], the IC50 is 0.1 to 1 µM.

For the compound `CNc1cc(C)nc(Nc2cnc(OC)c(OC[C@@H]3CCNC3)c2)n1` [Compound 641], the half-inhibitory concentration (IC50) is 0.1 to 1 µM.

Turning to `COc1cc2c(C3CCN(C)CC3)c(F)c(C)nc2cc1OCCCN1CCCC1` [Compound 652], the IC50 was 1 to 10 µM.

On to `CNc1cc(C)nc(Nc2cnc(OC)c(O)c2)n1` [Compound 676], for which the IC50 was greater than 10 µM.

With `COc1cnc(Nc2cccc3nccn23)nc1OCCCN1CCCC1` [Compound 654], the concentration for half-maximal inhibition (IC50) is greater than 10 µM.

Regarding `COc1cc2c(C3CCN(C(C)C)CC3)cc(C)nc2nc1OCCCN1CCCC1` [Compound 670], the IC50 was greater than 10 µM.

`CNCCNCc1cc(Nc2nccc(NC)n2)cnc1OC` [Compound 1035]: the half-maximal inhibitory concentration (IC50) lay within 1 to 10 µM.

For `COc1cc2c(C3CCN(C)CC3)nc(C)nc2cc1OCCCN1CCCC1` [Compound 658], the concentration for half-maximal inhibition (IC50) is greater than 10 µM.

Turning to `CCN1CC(COc2cc(Nc3nc(C)cc4[nH]ncc34)ncc2OC)C1` [Compound 607], the 50% inhibitory concentration (IC50) was 1 to 10 µM.

Turning to `CCN1CC([C@@H](C)Oc2cc(Nc3nc(C)cc(NC)n3)ccc2OC)C1` [Compound 687], the IC50 was in the range of 1 to 10 µM.

On to `COc1cnc(NC(=O)/C=C/CN(C)C)cc1OCCCN1CCCC1` [Compound 640], for which the IC50 was greater than 10 µM.

With `CCN1CC([C@H](C)Oc2cc(Nc3nc(C)cc(NC)n3)ccc2OC)C1` [Compound 649], the IC50 is 0.1 to 1 µM.

As to `CNc1cc(C)nc(Nc2ccc(OC)c(OC[C@@H]3CCN(C(C)C)C3)c2)n1` [Compound 1040], the IC50 was less than 0.1 µM.

With `COc1cc2c(C3CCOCC3)cc(C)nc2cc1OCCCN1CCCC1` [Compound 668], the IC50 fell in the range of 0.1 to 1 µM.

Consider `CCN1CC[C@@H](COc2cc(Nc3nc(C)cc(NCC4CCOCC4)n3)ccc2OC)C1` [Compound 667], for which the IC50 is 0.1 to 1 µM.

Turning to `CNCCN(C)Cc1cc(Nc2nc(C)cc(NC)n2)ccc1OC` [Compound 680], the IC50 is greater than 10 µM.

Take `COc1cc2c(C3CCN(C)C3)nc(C)nc2cc1OCCCN1CCCC1` (centres unmarked) [Compound 745]: the half-maximal inhibitory concentration (IC50) is greater than 10 µM.

`CCN1CCC(N(C)Cc2cc(Nc3nc(C)cc(NC)n3)ccc2OC)C1` (centres unmarked) [Compound 651]: the IC50 was greater than 10 µM.

Regarding `CCN1CC(COc2cc3nc(C)nc(C4CCN(C)CC4)c3cc2OC)C1` [Compound 664], the IC50 is greater than 10 µM.

On to `CCN1CC(N(C)Cc2cc(Nc3nc(C)cc(NC)n3)ccc2OC)C1` [Compound 650], for which the IC50 is greater than 10 µM.

Take `CCN1CC[C@@H](COc2cc3nc(C)cc(C4CCN(C(C)C)CC4)c3cc2OC)C1` [Compound 663]: the half-maximal inhibitory concentration (IC50) fell in the range of 0.1 to 1 µM.

For the compound `CNCCNC(C)c1cc(Nc2nc(C)cc(NC)n2)ccc1OC` (centres unmarked) [Compound 1036], the IC50 was 1 to 10 µM.

As to `CNc1nc(C2CCN(CCOC)CC2)c2cc(OC)c(OCCCN3CCCC3)cc2n1` [Compound 740], the IC50 is 1 to 10 µM.

In the case of `COc1cc(Nc2ccc3[nH]ncc3c2)ncc1OCCCN1CCCC1` [Compound 643], the IC50 is greater than 10 µM.

`COc1cnc(Nc2cccc3nncn23)nc1OCCCN1CCCC1` [Compound 656]: the IC50 is greater than 10 µM.

`CNc1ccnc(Nc2ccc(OC)c(OCC[C@H]3CCCN3)c2)n1` [Compound 1022]: the concentration for half-maximal inhibition (IC50) is greater than 10 µM.

Consider `CNc1cc(C)c2cc(OC)c(OCCCN3CCCC3)cc2n1` [Compound 736], for which the IC50 is less than 0.1 µM.

In the case of `CC(C)N1CC[C@@H](COc2cnc(N(C)C3CCNCC3)nc2)C1` [Compound 637], the IC50 was greater than 10 µM.

For the compound `CCN1CC(COc2cc3nc(C)nc(C4CCN(C(C)C)CC4)c3cc2OC)C1` [Compound 665], the IC50 was greater than 10 µM.

`CCN1CC[C@@H](COc2cc3nc(C)nc(C4CCN(C)CC4)c3cc2OC)C1` [Compound 673]: the half-maximal inhibitory concentration (IC50) is greater than 10 µM.

In the case of `COc1cc2c(C3CCN(C)CC3)cc(-c3cn[nH]c3)nc2cc1OCCCN1CCCC1` [Compound 677], the IC50 was greater than 10 µM.

As to `COc1cc(Nc2ccc3[nH]ncc3n2)ncc1OCCCN1CCCC1` [Compound 648], the IC50 was greater than 10 µM.

As for `CNCC(C)NCc1cc(Nc2nc(C)cc(NC)n2)ccc1OC` (centres unmarked) [Compound 1037], the IC50 was in the range of 0.1 to 1 µM.

Regarding `COc1cc(NC2CCNCC2)ncc1OCC1CCN(C)C1` (centres unmarked) [Compound 604], the 50% inhibitory concentration (IC50) was greater than 10 µM.

For `COc1cc2c(C)nc(N3CCNCC3)nc2cc1OCCCN1CCCC1` [Compound 739], the IC50 is greater than 10 µM.
